Assay results reported in ChEMBL document CHEMBL1201862, “PubChem BioAssay data set” (2004).
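Assay format: 96-well plates, 48-hour exposure. GI50 is the concentration that inhibits growth by half.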 The source made the active and inactive calls. No stated cut-off is given here; in the data, active = GI50 up to about 1.1 µM and inactive = higher.

Tests used:
Experiment in all cases: DTP human tumour cell line panel, 48 h
[1] = tested on: KM12
[2] = tested on: UACC-257
[3] = tested on: NCI-H460
[4] = tested on: LOX IMVI
[5] = tested on: A498
[6] = tested on: ACHN
[7] = tested on: SF-268
[8] = tested on: HCC 2998
[9] = tested on: OVCAR-5
[10] = tested on: HOP-92
[11] = tested on: OVCAR-3
[12] = tested on: SK-MEL-28
[13] = tested on: CCRF-CEM
[14] = tested on: UO-31
[15] = tested on: SNB-75
[16] = tested on: HL-60
[17] = tested on: SNB-19
[18] = tested on: NCI-H226

Measured: GI50

Fc1ccc2c(c1)SC1Oc3ccccc3-c3c1c-2nn3-c1ccccc1 (configuration not stated)
inactive: [1] > 100 µM | [2] > 100 µM | [3] > 100 µM | [4] > 100 µM | [5] > 100 µM | [6] > 100 µM | [7] > 100 µM | [8] > 100 µM | [9] > 100 µM | [10] > 100 µM | [11] > 100 µM | [12] > 100 µM | [13] > 100 µM | [14] > 100 µM | [15] 86.7 µM | [16] > 100 µM

O=C(O)c1ccc(O)c(/N=N/c2cc(S(=O)(=O)O)c3ccccc3c2O)c1
inactive: [17] > 100 µM | [1] > 100 µM | [2] > 10 µM | [3] 37.2 µM | [4] > 100 µM | [5] > 100 µM | [6] > 100 µM | [7] > 10 µM | [8] > 100 µM | [9] > 100 µM | [10] > 100 µM | [11] 92.3 µM | [12] > 100 µM | [18] > 100 µM | [14] > 100 µM | [15] > 100 µM | [16] > 100 µM

O=C(CC1(O)C(=O)Nc2ccc(Br)cc21)c1ccc(Cl)cc1Cl (configuration not stated)
inactive: [17] > 100 µM | [1] 52.6 µM | [2] 30.9 µM | [3] 49.8 µM | [5] > 100 µM | [6] 60.1 µM | [7] 50.1 µM | [8] 91.8 µM | [9] > 100 µM | [11] 34.9 µM | [12] 44 µM | [18] 39.4 µM | [13] 20.2 µM | [14] > 100 µM | [15] 38 µM | [16] 19.1 µM

Cc1ccc(S(=O)(=O)c2ccccc2[N+](=O)[O-])cc1
inactive: [1] > 100 µM | [2] 72.6 µM | [3] > 100 µM | [5] > 100 µM | [6] > 100 µM | [8] > 100 µM | [9] > 100 µM | [11] > 100 µM | [12] > 100 µM | [18] > 100 µM | [13] > 100 µM | [14] 81.8 µM | [15] > 100 µM | [16] 37.5 µM

CNS(=O)(=O)NN(C)S(=O)(=O)c1ccc2ccccc2c1
inactive: [17] > 10 µM | [1] > 100 µM | [2] > 100 µM | [4] > 100 µM | [5] > 100 µM | [6] > 100 µM | [8] > 100 µM | [18] > 100 µM | [13] > 100 µM | [14] > 100 µM | [15] > 100 µM | [16] > 100 µM

O=C1CCCC/C1=C1\C(=O)Nc2cc(F)ccc21
inactive: [17] > 100 µM | [1] > 100 µM | [2] > 100 µM | [3] > 100 µM | [4] > 100 µM | [5] > 100 µM | [6] > 100 µM | [7] > 100 µM | [8] > 100 µM | [9] > 100 µM | [10] > 100 µM | [12] > 100 µM | [18] > 100 µM | [13] > 100 µM | [14] > 100 µM | [15] > 100 µM | [16] > 100 µM

CCCN1CN(C(C(=O)N[C@@H]2C(=O)N3C2SC(C)(C)C3C(=O)O)c2ccc(O)cc2)CSC1=S (some centres not stated)
inactive: [17] > 100 µM | [1] > 100 µM | [2] > 100 µM | [3] > 100 µM | [4] 97.9 µM | [5] > 100 µM | [6] > 100 µM | [7] > 100 µM | [9] > 100 µM | [10] > 100 µM | [11] 23.6 µM | [12] > 100 µM | [13] > 100 µM | [14] > 100 µM | [15] > 100 µM | [16] > 100 µM

COc1ccc2c(c1)CC[C@@H]1C2CC[C@]2(C)C(=N\O)/C(=N/O)CC12 (some centres not stated)
inactive: [17] 16.6 µM | [1] 11.2 µM | [2] 16.7 µM | [3] 3.41 µM | [4] 2.43 µM | [5] 19.1 µM | [6] 15.7 µM | [7] 17.9 µM | [8] 22.3 µM | [9] 12.4 µM | [10] 16.1 µM | [11] 12.4 µM | [18] 11 µM | [13] 9.68 µM | [14] 12.8 µM | [16] 14.2 µM

Clc1ccccc1C1=NN(c2ccccc2)C2c3cc(Br)ccc3OCC12 (configuration not stated)
inactive: [17] > 100 µM | [1] > 100 µM | [2] > 100 µM | [3] > 100 µM | [4] > 10 µM | [5] > 100 µM | [6] > 100 µM | [7] > 100 µM | [8] > 100 µM | [9] > 100 µM | [10] > 100 µM | [11] > 100 µM | [12] > 100 µM | [13] > 100 µM | [14] > 100 µM | [15] > 100 µM | [16] > 100 µM

Nc1ccc(C(=O)/C=C/c2ccccc2O)cc1
inactive: [17] > 100 µM | [1] > 100 µM | [2] > 100 µM | [3] > 100 µM | [4] > 100 µM | [5] > 100 µM | [6] > 100 µM | [7] > 100 µM | [8] > 100 µM | [9] > 100 µM | [11] > 100 µM | [12] > 100 µM | [18] > 100 µM | [13] > 100 µM | [14] > 100 µM | [15] > 100 µM | [16] > 100 µM

Cc1cc(N(CCC#N)CCC#N)ccc1/C=C(\NC(=O)/C=C/c1ccccc1)C(=O)N=[N+]=[N-]
inactive: [17] 77.8 µM | [1] 2.91 µM | [2] > 100 µM | [3] > 100 µM | [4] > 100 µM | [5] > 100 µM | [6] > 100 µM | [7] 99.1 µM | [8] > 100 µM | [9] > 100 µM | [11] 7.01 µM | [12] > 100 µM | [18] > 100 µM | [13] > 100 µM | [14] > 100 µM | [15] 23 µM | [16] > 100 µM

O=C1c2cccc(O)c2C(=O)c2c(O)cccc21 [DANTHRON]
inactive: [17] > 100 µM | [1] > 100 µM | [2] 85.1 µM | [3] 30.3 µM | [4] 55.8 µM | [5] 17.9 µM | [6] > 100 µM | [7] > 100 µM | [8] 88.7 µM | [9] > 100 µM | [10] > 100 µM | [11] 28.3 µM | [12] > 100 µM | [18] > 100 µM | [13] > 100 µM | [14] > 100 µM | [15] > 100 µM
